Laboratory results: patent US20240108612A1, “PHARMACEUTICAL COMPOSITION FOR ENHANCING ANTICANCER EFFECT OF PROTAC, INCLUDING IU1-SERIES UBIQUITIN-SPECIFIC PROTEASE 14 INHIBITOR AS ACTIVE INGREDIENT” (DAEGU GYEONGBUK INSTITUTE OF SCIENCE AND TECHNOLOGY, priority 2021, published 2024)
Peptide text beside a SMILES is read from it. * marks the point of attachment. Cbz = O=C(OCc1ccccc1)*

Tests used:
[1] = molecular target: T1, CDK9 protein (Homo sapiens, UniProt P50750); assay: CDK9 protein degradation by Western blotting in HeLa cells; assay type: cell-based; design: endogenous in cells; host or cells: HeLa (ATCC); conditions: for CDK9 protein level when inhibitor is treated together with PROTAC and IU1: proteasome or autophagy inhibitor added to CDK9 PROTAC and IU1, FIG. 4C; for Enhancement of degradation effect of CDK9 PROTAC, comparison with PR-619: PR-619 at different concentrations, FIG. 16
Method: (§1) HeLa cells (cervical cancer cells) and LNCaP cells (prostate cancer cells) that were used for the experiments of the present disclosure were obtained from the American Type Culture Collection (ATCC), and were cultured in Dulbecco's Modified Eagle's Medium (DMEM, 1×) or RPMI-1640 (1×) medium, each containing 10% FBS, 1% penicillin/streptomycin and 1% L-glutamine, in a 37° C., 5% CO2 cell incubator. For experiments with PROTAC and deubiquitinase (DUB) inhibitors such as IU1 and IU1-47, 5×10^5 (HeLa) or 1×10^6 (LNCaP) cells were seeded into each well of a 12-well plate (Corning, #3513) one day before inhibitor treatment and then cultured in an incubator. Twenty-four hours after incubation, each well was replaced with medium containing serial dilutions of the compound and incubated under the same conditions for no more than 24 hours. As for all controls, the same amount of DMSO, which is a vehicle, was used for that of the compound treated with the experimental groups.
(§2) To prepare samples for Western blotting, HeLa and LNCaP cells were washed once with ice-cold PBS (1×) and lysed using RIPA buffer (ROCKLAND, MB-030-050) supplemented with protease inhibitor cocktail (Roche), 1 mM PMSF, and 1 mM DTT, or 1% SDS lysis buffer [1% (w/v) SDS, 10 mM Tris-HCl, 1 mM EDTA, pH 8.0]. All lysates were quantified by BCA protein assay (Thermo Fisher Scientific), and then 15 to 30 μg of each lysate was run by SDS-PAGE. Afterwards, the experiment was performed in the following order: transfer to PVDF membrane, treatment with a blocking solution (5% BSA or 5% non-fat dry milk in 1× TBST), treatment with designated primary antibody, and treatment with HRP-linked secondary antibody. Between treatments, washing was performed several times with excess 1× TBST. Each membrane was image-analyzed and quantified for protein signals using ChemiDoc (iBright750, Invitrogen).
Data obtained through Western blotting were quantified using iBright analysis software, and the levels of all target proteins were normalized with GAPDH. After quantification and normalization, DC50 values of the compounds used in the experiments of the present disclosure were derived through nonlinear regression using Graph Pad Prism software.

[2] = molecular target: T2, BRD4 protein (Homo sapiens, UniProt O60885); assay: BRD4 protein degradation by Western blotting; assay type: cell-based; conditions: 50 μM IU1 with BRD4 PROTAC; 1% SDS lysis buffer or RIPA buffer; FIG. 11
T2 construct: endogenous in cells
Method: as §2
In order to determine whether the USP14 inhibitor of the present disclosure can enhance protein degradation capability for PROTACs other than CDK9 PROTACs, which were confirmed through experiments in Examples 2 and 4, it was confirmed whether the effect of degradation of BRD4 protein by BRD4 PROTAC was enhanced by IU1 treatment. […]

[3] = molecular target: T3, SHP-2 protein (Homo sapiens, UniProt Q06124); assay: SHP-2 protein degradation by Western blotting in HeLa cells; assay type: cell-based; conditions: IU1 in combination with SHP-2 PROTAC, FIGS. 12A, 12B
T3 construct: endogenous in cells; host or cells: HeLa (ATCC)
T3 sequence (Q06124 1-593): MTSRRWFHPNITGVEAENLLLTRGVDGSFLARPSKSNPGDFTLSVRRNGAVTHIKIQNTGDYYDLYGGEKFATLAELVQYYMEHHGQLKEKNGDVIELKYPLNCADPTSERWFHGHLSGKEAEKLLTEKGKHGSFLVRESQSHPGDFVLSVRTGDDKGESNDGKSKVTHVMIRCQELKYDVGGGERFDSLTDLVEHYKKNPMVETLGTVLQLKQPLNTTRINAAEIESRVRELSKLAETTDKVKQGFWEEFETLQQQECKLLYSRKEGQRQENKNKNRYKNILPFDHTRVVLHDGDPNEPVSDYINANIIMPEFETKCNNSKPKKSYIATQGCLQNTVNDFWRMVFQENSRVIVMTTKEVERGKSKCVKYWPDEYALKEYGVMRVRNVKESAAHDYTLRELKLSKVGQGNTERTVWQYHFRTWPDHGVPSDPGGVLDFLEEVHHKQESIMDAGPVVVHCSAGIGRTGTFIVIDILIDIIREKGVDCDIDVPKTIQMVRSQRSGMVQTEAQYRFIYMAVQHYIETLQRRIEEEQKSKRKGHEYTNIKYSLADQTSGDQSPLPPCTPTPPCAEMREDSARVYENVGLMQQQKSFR
Method: as §2
In addition, for SHP-2 PROTAC, which is another VHL-based PROTAC other than BRD4 PROTAC, it was confirmed whether the degradation effect for SHP-2 protein was enhanced under experimental conditions similar to those in the experiment in FIG. 7.

[4] = molecular target: T1, CDK9 protein; assay: CDK9 protein degradation by Western blotting in LNCaP cells; assay type: cell-based; design: endogenous in cells
Method: as §1, with “Twenty-four hours after incubation, each well was replaced with medium containing serial dilutions of the compound and incubated under the same conditions for no more than 24 hours. As for all controls, the same amount of DMSO, which is a vehicle, was used for that of the compound treated with the experimental groups.” left out
To prepare samples for Western blotting, HeLa and LNCaP cells were washed once with ice-cold PBS (1×) and lysed using RIPA buffer (ROCKLAND, MB-030-050) supplemented with protease inhibitor cocktail (Roche), 1 mM PMSF, and 1 mM DTT, or 1% SDS lysis buffer [1% (w/v) SDS, 10 mM Tris-HCl, 1 mM EDTA, pH 8.0]. All lysates were quantified by BCA protein assay (Thermo Fisher Scientific), and then 15 to 30 μg of each lysate was run by SDS-PAGE. […] Each membrane was image-analyzed and quantified for protein signals using ChemiDoc (iBright750, Invitrogen).
Data obtained through Western blotting were quantified using iBright analysis software, and the levels of all target proteins were normalized with GAPDH. […]

[5] = tested on: HeLa cells; conditions: FIG. 8
Method: To measure cell viability by treatment with the compound of the present disclosure, HeLa and LNCaP cells were seeded in a 96-well plate (SPL, #33396) at 500 cells/well (HeLa) or 3000 cells/well (LNCaP). The cells were seeded and cultured in an incubator at 37° C. and 5% CO2. Twenty four hours later, the medium was replaced with compound-containing medium and incubated under the same conditions in an incubator for 48 hours. Afterwards, cell viability was measured through luminescence analysis in an Envision microplate reader (Perkin Elmer) using the ATP-lite 1 step assay kit (Perkin Elmer).
The results measured in the experiments to confirm cell viability were initially processed using Excel, and then the IC50 values were derived through nonlinear regression analysis using Prism software.

[6] = tested on: HeLa cells; assay: Cancer cell colony formation assay in HeLa cells; assay type: cell-based; conditions: CDK9 PROTAC 10-100 nM and IU1-47 20 μM in combination; one week; FIG. 19
Method: Afterwards, the medium was replaced with a compound-containing medium, and then the cells were further cultured in the incubator under the same conditions for one week. The cultured cancer cells at the end were stained with 0.25% crystal violet staining solution containing 20% methanol for 1 hour, and then washed with ultrapure distilled water and dried at room temperature for one day. Cell images were captured using a camera or iBright CL750 (Thermo Fisher), the number of colonies was analyzed using iBright analysis software, and the size of colonies was analyzed using ImageJ software.
As another example to confirm the anticancer effect by the degradation of CDK9 protein enhanced by the combined treatment of the IU1-series compound and CDK9 PROTAC, which was confirmed in Examples as described above, different concentrations of CDK9 PROTAC (10, 25 , 50, 75, 100 nM) and IU1-47 (20 μM) compounds were used separately or in combination for treatment, and one week later, the degree of colony formation of HeLa cancer cells by the effect of enhancing CDK9 PROTAC protein degradation capability by IU1-series compound, was confirmed.

[7] = tested on: HeLa cells; assay: Cancer cell migration assay in HeLa cells; assay type: cell-based; conditions: CDK9 PROTAC 40 nM and IU1-47 20 μM in combination; every 12 hours; FIG. 18
Method: Microscopic images were taken using an inverted fluorescence microscope (Olympus) through a 10× magnification lens every 12 hours, and the width of the intercellular region was measured using ImageJ software.
To this end, HeLa cells were treated with CDK9 PROTAC (40 nM) and IU1-47 (20 μM) compounds separately or in combination, and the migration of HeLa cells was confirmed every 12 hours.

T1 sequence (P50750 whole entry): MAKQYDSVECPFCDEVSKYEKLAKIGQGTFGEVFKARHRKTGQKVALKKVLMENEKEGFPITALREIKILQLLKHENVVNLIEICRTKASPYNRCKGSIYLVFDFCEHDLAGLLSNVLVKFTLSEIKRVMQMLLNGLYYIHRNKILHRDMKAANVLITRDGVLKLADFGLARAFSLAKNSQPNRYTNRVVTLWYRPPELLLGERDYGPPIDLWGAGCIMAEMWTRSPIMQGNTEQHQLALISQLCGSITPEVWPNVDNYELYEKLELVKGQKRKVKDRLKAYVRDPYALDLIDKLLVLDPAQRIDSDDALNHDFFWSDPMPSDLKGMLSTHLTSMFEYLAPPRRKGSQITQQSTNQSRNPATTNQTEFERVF
T1 sequence (O60563 whole entry partner): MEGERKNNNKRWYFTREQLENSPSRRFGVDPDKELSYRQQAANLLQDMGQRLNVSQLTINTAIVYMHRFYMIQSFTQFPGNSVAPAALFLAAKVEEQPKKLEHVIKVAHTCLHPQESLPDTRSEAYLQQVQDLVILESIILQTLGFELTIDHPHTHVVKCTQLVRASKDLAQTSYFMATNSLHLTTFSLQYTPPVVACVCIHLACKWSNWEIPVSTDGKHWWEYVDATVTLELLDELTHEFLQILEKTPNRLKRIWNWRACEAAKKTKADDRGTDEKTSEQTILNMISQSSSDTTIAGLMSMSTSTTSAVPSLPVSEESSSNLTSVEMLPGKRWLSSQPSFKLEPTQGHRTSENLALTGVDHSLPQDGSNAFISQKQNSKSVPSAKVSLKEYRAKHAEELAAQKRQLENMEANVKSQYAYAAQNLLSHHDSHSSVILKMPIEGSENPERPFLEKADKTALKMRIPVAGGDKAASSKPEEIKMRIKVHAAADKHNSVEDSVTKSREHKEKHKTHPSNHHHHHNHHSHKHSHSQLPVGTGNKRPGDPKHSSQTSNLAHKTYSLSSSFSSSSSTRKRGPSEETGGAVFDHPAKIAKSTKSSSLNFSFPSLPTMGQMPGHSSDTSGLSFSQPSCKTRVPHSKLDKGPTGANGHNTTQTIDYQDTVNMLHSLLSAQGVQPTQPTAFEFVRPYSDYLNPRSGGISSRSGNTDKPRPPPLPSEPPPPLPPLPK

CS(=O)(=O)c1ccc(NC(=O)c2cc(C#N)c(Sc3c(Cl)cncc3Cl)s2)cc1 [P50429, reference compound]
Enhancement of degradation effect of CDK9 PROTAC ([1]; HeLa, P50429 1 μM and 10 μM with CDK9 PROTAC, FIG. 17): did not enhance the degradation effect of PROTAC

CO/C1=C\C(C)=C\[C@@H](C)[C@@H](O)[C@@H](C)C/C(C)=C/C=C/[C@H](OC)[C@@H]([C@@H](C)[C@@H](O)[C@H](C)[C@@]2(O)C[C@@H](O)[C@H](C)[C@@H](C(C)C)O2)OC1=O [bafilomycin A1, reference compound]
CDK9 protein level when inhibitor is treated together with PROTAC and IU1 [1]: the degradation of CDK9 protein by the treatment with PROTAC and IU1 was still observed

Cc1cc(C(=O)CN2CCCC2)c(C)n1-c1ccc(F)cc1 [IU1, 1-[1-(4-fluorophenyl)-2,5-dimethylpyrrol-3-yl]-2-pyrrolidin-1-ylethanone]
Enhancement of BRD4 protein degradation effect of BRD4 PROTAC [2]: concentration-dependent enhancement of the BRD4 protein degradation effect
Enhancement of SHP-2 protein degradation by SHP-2 PROTAC [3]: SHP-2 PROTAC concentration-dependent enhancement of SHP-2 protein degradation
Enhancement of CDK9 degradation effect by CDK9 PROTAC, IU1 concentration fixed ([4]; IU1 10, 25, 75, 100 μM (all concentrations), CDK9 PROTAC 1-50 nM, FIGS. 10A, 10B): enhanced the CDK9 degradation effect by CDK9 PROTAC in a PROTAC concentration-dependent manner
Degradation effect for CDK9 protein, combination versus CDK9 PROTAC alone ([4]; IU1 and CDK9 PROTAC in combination, FIG. 9): significantly increased
Anticancer effect of CDK9 PROTAC (IC50, cell growth inhibition) with IU1 in combination [5]: significantly increased
Enhancement of protein degradation capability of CDK9 PROTAC through the DC50 value, versus vehicle control ([1]; HeLa, 75 μM of IU1 in combination): about 5 times
Time-dependent effect on degradation effect of CDK9 PROTAC ([1]; HeLa, CDK9 PROTAC 100 nM, IU1 50 μM, 0, 1, 3, 6, 12, 24 h, FIG. 15): accelerated the degradation effect of PROTAC
Enhancement of CDK9 protein degradation capability by CDK9 PROTAC versus vehicle control ([1]; HeLa, CDK9 PROTAC 0.1-250 nM, especially high concentration of IU1, FIGS. 7A, 7B): highly enhanced the CDK9 protein degradation capability
Enhancement of protein degradation effect, CDK9 PROTAC concentration fixed ([1]; HeLa, CDK9 PROTAC 5, 10, 20, 25 nM, IU1 10-100 μM, FIGS. 6A, 6B): the protein degradation effect was enhanced in an IU1 concentration-dependent manner at all concentrations
CDK9 protein degradation effect of CDK9 PROTAC on combined treatment ([1]; HeLa, IU1 50 μM with CDK9 PROTAC 1, 10, 25, 50, 100 nM, FIG. 4A): substantially increased
Enhancement of CDK9 degradation effect by CDK9 PROTAC, IU1 concentration fixed ([1]; HeLa, IU1 10, 25, 75, 100 μM, CDK9 PROTAC 1-100 nM, FIGS. 5A, 5B): enhanced the CDK9 degradation effect by CDK9 PROTAC in a PROTAC concentration-dependent manner at all concentrations except for the IU1 concentration at 10 μM
CDK9 protein degradation on treatment with IU1 alone ([1]; HeLa, maximum IU1 treatment concentration 50 μM, FIG. 4B): degradation of CDK9 protein did not occur

Cc1cc(C(=O)CN2CCCCC2)c(C)n1-c1ccc(Cl)cc1 [IU1-47, 1-[1-(4-chlorophenyl)-2,5-dimethyl-1H-pyrrol-3-yl]-2-(1-piperidinyl)ethanone]
Colony formation of HeLa cancer cells, combination versus either alone [6]: significantly inhibited
Migration or wound healing effect of HeLa cells, combination versus either alone [7]: significantly inhibited
Enhancement of protein degradation of PROTAC from DC50 values, versus CDK9 PROTAC alone ([1]; HeLa, 20 μM IU1-47 in combination with CDK9 PROTAC, FIG. 13C): about 6 times
Enhancement of degradation of PROTAC, CDK9 PROTAC concentration fixed ([1]; HeLa, CDK9 PROTAC 5, 10, 20 nM, varying IU1-47, FIG. 14): significantly enhanced the degradation of PROTAC in a concentration-dependent manner
CDK9 degradation on treatment with IU1-47 alone ([1]; HeLa, FIG. 14): did not result in any degradation of CDK9
Enhancement of protein degradation capability of CDK9 PROTAC versus vehicle ([1]; HeLa, IU1-47 10 μM, 20 µM, 30 μM, CDK9 PROTAC 0.1-250 nM, FIGS. 13A, 13B): significantly enhanced at all concentrations of IU1-47
Enhancement of degradation effect of CDK9 PROTAC, comparison with P50429 ([1]; HeLa, IU1-47 20 μM, FIG. 17): significantly enhanced the degradation effect of PROTAC
Enhancement of degradation effect of CDK9 PROTAC, comparison with PR-619 ([1]; HeLa): significantly enhanced the degradation effect of PROTAC
Targeted protein degradation capability of PROTAC, IU1-47 compared with IU1 ([1]; in combination with PROTAC, see Example 6): more increased compared to when IU1 was treated in combination with PROTAC

CC(C)C[C@@H](C=O)NC(=O)[C@H](CC(C)C)NC(=O)[C@H](CC(C)C)NC(=O)OCc1ccccc1 [MG132, reference compound] (Cbz-Leu-Leu-Leu-aldehyde)
CDK9 protein level when inhibitor is treated together with PROTAC and IU1 [1]: the level of CDK9 protein was recovered similar to the control group

N#CSc1cc(SC#N)c(N)nc1N [PR-619, reference compound]
Enhancement of degradation effect of CDK9 PROTAC, comparison with PR-619 ([1]; HeLa): did not show the effect of enhancing the protein degradation of PROTAC at all treatment concentrations
